Source: PubChem BioAssay AID248 (DTP/NCI, 2004)
Several values for one entry are separate records, joined by “and”; a condition that tells them apart may be missing. Equal values may be shown once. Inconclusive results and toxic doses are left out. Cut-off read from the data, not from the text of the source: active = T/C of 150% or more; inactive = T/C below 125%.

System: L1210 leukemia ip in BDF1 mice, survival T/C
Assay: NCI In Vivo Anticancer Drug Screen. Data for tumor model L1210 Leukemia (intraperitoneal) in B6D2F1 (BDF1) mice
Details: endpoint: mean survival time, higher = longer survival
Procedure, shortened: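 In this screen, tumor-bearing mice given compound are compared to those given vehicle, and their survival values are reported as a treated-to-control quotient.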

Measured: T/C

O=NN(CCCl)C(=O)N[C@H]1CCCC[C@@H]1Cl
active: dose: 5.0 mg/kg/injection, schedule: Q01DX015 (ip), vehicle: other 173 % of control | dose: 6.7 mg/kg/injection, schedule: Q02DX008 (ip), vehicle: other 162 % of control and 208 % of control | dose: 7.6 mg/kg/injection, schedule: Q01DX015 (ip), vehicle: other 277 % of control | dose: 7.62 mg/kg/injection, schedule: Q01DX015 (ip), vehicle: other 485 % of control | dose: 10.2 mg/kg/injection, schedule: Q02DX008 (ip), vehicle: other 242 % of control and 558 % of control | dose: 11.4 mg/kg/injection, schedule: Q01DX015 (ip), vehicle: other 348 % of control and 478 % of control | dose: 12.0 mg/kg/injection, schedule: Q01DX001 (ip), vehicle: other 203 % of control | dose: 13.4 mg/kg/injection, schedule: Q## X004 (ip), vehicle: other 291 % of control and 500 % of control | dose: 13.75 mg/kg/injection, schedule: Q01DX001 (oral), vehicle: other 150 % of control and 164 % of control | dose: 13.75 mg/kg/injection, schedule: Q## X001 (oral), vehicle: other 200 % of control | dose: 15.0 mg/kg/injection, schedule: Q01DX001 (ip), vehicle: other 187 % of control | dose: 15.0 mg/kg/injection, schedule: Q01DX005 (ip), vehicle: other 476 % of control | dose: 15.0 mg/kg/injection, schedule: Q01DX009 (ip), vehicle: other 408 % of control | dose: 15.0 mg/kg/injection, schedule: Q01DX009 (sc), vehicle: other 365 % of control | dose: 15.0 mg/kg/injection, schedule: Q## X003 (ip), vehicle: other 476 % of control | dose: 15.24 mg/kg/injection, schedule: Q02DX008 (ip), vehicle: other 501 % of control | dose: 15.25 mg/kg/injection, schedule: Q01DX001 (ip), vehicle: other 323 % of control | dose: 15.25 mg/kg/injection, schedule: Q## X001 (ip), vehicle: other 156 % of control | dose: 16.0 mg/kg/injection, schedule: Q## X032 (ip), vehicle: other 209 % of control | dose: 17.0 mg/kg/injection, schedule: Q01DX015 (ip), vehicle: other 330 % of control and 527 % of control | dose: 18.0 mg/kg/injection, schedule: Q01DX001 (ip), vehicle: carboxymethylcellulose (CMC) 183 % of control | dose: 19.0 mg/kg/injection, schedule: Q01DX001 (ip), vehicle: carboxymethylcellulose (CMC) 160 % of control | dose: 20.4 mg/kg/injection, schedule: Q## X004 (ip), vehicle: other 590 % of control | dose: 22.8 mg/kg/injection, schedule: Q02DX008 (ip), vehicle: other 433 % of control and 545 % of control | dose: 24.0 mg/kg/injection, schedule: Q01DX001 (ip), vehicle: other 476 % of control | dose: 24.0 mg/kg/injection, schedule: Q01DX001 (oral), vehicle: other 275 % of control | dose: 24.0 mg/kg/injection, schedule: Q01DX001 (sc), vehicle: other 267 % of control | dose: 24.0 mg/kg/injection, schedule: Q## X008 (oral), vehicle: other 165 % of control | dose: 24.0 mg/kg/injection, schedule: Q## X024 (oral), vehicle: other 270 % of control | dose: 24.0 mg/kg/injection, schedule: Q## X032 (ip), vehicle: other 470 % of control | dose: 26.0 mg/kg/injection, schedule: Q01DX001 (ip), vehicle: carboxymethylcellulose (CMC) 209 % of control and 243 % of control | dose: 27.0 mg/kg/injection, schedule: Q01DX001 (ip), vehicle: other 409 % of control | dose: 27.5 mg/kg/injection, schedule: Q01DX001 (oral), vehicle: other 263 % of control and 297 % of control | dose: 27.5 mg/kg/injection, schedule: Q## X001 (oral), vehicle: other 438 % of control | dose: 28.0 mg/kg/injection, schedule: Q## X001 (oral), vehicle: other 340 % of control | dose: 30.0 mg/kg/injection, schedule: Q01DX005 (ip), vehicle: other 203 % of control | dose: 30.0 mg/kg/injection, schedule: Q01DX005 (oral), vehicle: other 255 % of control | dose: 30.0 mg/kg/injection, schedule: Q01DX009 (sc), vehicle: other 200 % of control | dose: 30.0 mg/kg/injection, schedule: Q## X003 (ip), vehicle: other 357 % of control | dose: 30.0 mg/kg/injection, schedule: Q## X003 (oral), vehicle: other 452 % of control | dose: 30.5 mg/kg/injection, schedule: Q01DX001 (ip), vehicle: carboxymethylcellulose (CMC) 303 % of control | dose: 30.5 mg/kg/injection, schedule: Q01DX001 (ip), vehicle: other 186 % of control and 230 % of control | dose: 30.5 mg/kg/injection, schedule: Q## X001 (ip), vehicle: other 205 % of control | dose: 30.5 mg/kg/injection, schedule: Q## X004 (ip), vehicle: other 525 % of control | dose: 34.0 mg/kg/injection, schedule: Q02DX008 (ip), vehicle: other 285 % of control and 398 % of control | dose: 36.0 mg/kg/injection, schedule: Q01DX001 (ip), vehicle: carboxymethylcellulose (CMC) 259 % of control | dose: 40.0 mg/kg/injection, schedule: Q01DX001 (ip), vehicle: carboxymethylcellulose (CMC) 235 % of control and 238 % of control | dose: 41.0 mg/kg/injection, schedule: Q01DX001 (ip), vehicle: other 590 % of control | dose: 41.0 mg/kg/injection, schedule: Q## X001 (oral), vehicle: other 403 % of control | dose: 45.6 mg/kg/injection, schedule: Q## X004 (ip), vehicle: other 289 % of control and 481 % of control | dose: 46.0 mg/kg/injection, schedule: Q01DX001 (ip), vehicle: carboxymethylcellulose (CMC) 329 % of control | dose: 48.0 mg/kg/injection, schedule: Q01DX001 (ip), vehicle: other 384 % of control | dose: 48.0 mg/kg/injection, schedule: Q01DX001 (oral), vehicle: other 476 % of control | dose: 48.0 mg/kg/injection, schedule: Q01DX001 (sc), vehicle: other 382 % of control | dose: 48.0 mg/kg/injection, schedule: Q## X008 (oral), vehicle: other 471 % of control | dose: 48.0 mg/kg/injection, schedule: Q## X024 (oral), vehicle: other 448 % of control | dose: 54.4 mg/kg/injection, schedule: Q## X032 (ip), vehicle: other 377 % of control | dose: 55.0 mg/kg/injection, schedule: Q01DX001 (oral), vehicle: other 174 % of control and 245 % of control | dose: 55.0 mg/kg/injection, schedule: Q## X001 (oral), vehicle: other 204 % of control | dose: 60.0 mg/kg/injection, schedule: Q01DX001 (ip), vehicle: carboxymethylcellulose (CMC) 296 % of control and 304 % of control and 329 % of control | dose: 61.0 mg/kg/injection, schedule: Q01DX001 (ip), vehicle: carboxymethylcellulose (CMC) 329 % of control | dose: 61.0 mg/kg/injection, schedule: Q## X001 (ip), vehicle: other 320 % of control and 527 % of control | dose: 68.0 mg/kg/injection, schedule: Q## X004 (ip), vehicle: other 180 % of control and 221 % of control | dose: 91.5 mg/kg/injection, schedule: Q01DX001 (ip), vehicle: carboxymethylcellulose (CMC) 164 % of control | dose: 91.5 mg/kg/injection, schedule: Q01DX001 (ip), vehicle: other 237 % of control and 491 % of control | dose: 96.0 mg/kg/injection, schedule: Q01DX001 (sc), vehicle: other 420 % of control | dose: 96.0 mg/kg/injection, schedule: Q## X008 (oral), vehicle: other 225 % of control
inactive: dose: 3.0 mg/kg/injection, schedule: Q## X024 (ip), vehicle: other 103 % of control | dose: 3.0 mg/kg/injection, schedule: Q## X024 (oral), vehicle: other 114 % of control | dose: 3.35 mg/kg/injection, schedule: Q01DX015 (ip), vehicle: other 116 % of control | dose: 6.0 mg/kg/injection, schedule: Q01DX001 (oral), vehicle: other 116 % of control | dose: 6.0 mg/kg/injection, schedule: Q01DX001 (sc), vehicle: other 123 % of control | dose: 6.0 mg/kg/injection, schedule: Q## X008 (oral), vehicle: other 122 % of control | dose: 8.0 mg/kg/injection, schedule: Q01DX001 (ip), vehicle: carboxymethylcellulose (CMC) 119 % of control | dose: 12.0 mg/kg/injection, schedule: Q## X008 (oral), vehicle: other 117 % of control | dose: 30.0 mg/kg/injection, schedule: Q01DX009 (ip), vehicle: other 121 % of control | dose: 60.0 mg/kg/injection, schedule: Q01DX009 (sc), vehicle: other 95 % of control | dose: 60.0 mg/kg/injection, schedule: Q## X003 (ip), vehicle: other 105 % of control | dose: 93.0 mg/kg/injection, schedule: Q01DX001 (ip), vehicle: carboxymethylcellulose (CMC) 108 % of control | dose: 96.0 mg/kg/injection, schedule: Q01DX001 (ip), vehicle: other 96 % of control | dose: 120.0 mg/kg/injection, schedule: Q## X003 (oral), vehicle: other 102 % of control
